Data: patent publication US20120328696A1, “ANTI-PARKINSONIAN COMPOUND ACETYLSALICYLIC ACID MALTOL ESTER” (Hutecs Korea Pharmaceutical Co., Ltd., priority 2008, published 2012)

What was measured:
Type in all cases: in vivo
cleaved PKCδ = assay: Striatal cleaved PKCδ expression after MA (western blot); settings: MA 8 mg/kg i.p. x4, GPx-1 (+/+) and (−/−) mice; for effect on MA-induced striatal cleaved PKCδ expression: p.o., AME 25 or 50, EBS 10 or 20, rottlerin 10 or 20 mg/kg
Method: (§1) The mice received four times of MA (8 mg/kg, ip) or saline as a 2 hr-time interval. Chemicals (AME, EBS, and PKC inhibitors) were administrated for 5 consecutive days (twice daily), and were given 2 times at 4 hr and 30 min before the first MA injection as shown in the experimental schedule. Animals were sacrificed at 4 hrs and 3 days after the final MA administration.
Tissues were homogenized in lysis buffer, containing 200 mM Tris HCl (pH 6.8), 1% SDS, 5 mM EGTA (ethylene glycol tetraacetic acid), 5 mM EDTA (ethylenediaminetetraacetic acid), 10% glycerol, 1× phosphatase inhibitor cocktail I, 1× protease inhibitor cocktail. Lysate was centrifuged at 12,000×g for 30 min and supernatant fraction was used for Western blot analysis. […] And then, membranes were incubated with HRP-conjugated secondary anti-rabbit IgG (1:1000, GE healthcare, Piscataway, N.J., USA), anti-mouse IgG (1:1000, Sigma) or anti-goat IgG (1:1000, Sigma) for 2 h. Subsequent visualization was performed using enhanced chemiluminescence system (ECL Plus®, GE healthcare).

[1] = tested on: GPx-1 (+/+)- and GPx-1 (−/−)-mice; assay: MA-induced hyperthermia (rectal temperature); settings: MA 8 mg/kg i.p. x4
Method: as §1
Rectal temperature was measured in the MA- or saline-treated mice. Measurement was performed at constant daytime intervals starting at 9:00 A.M. to avoid the influence on circadian variations. Rectal temperature was measured by inserting a thermometer probe lubricated with oil at least 3 cm into the rectum of the mice. To prevent sudden movements occurring especially in MA-treated mice, animals were gently handled with a wool glove while their tail was moved to allow the probe insertion. This was done to prevent the effects of restrain stress on rectal temperature. When the attempt to insert probe was not successful (i.e., sudden movements of the animal or the need to restrain the mouse), the animal was excluded from the groups.

[2] = tested on: dopamine (DA), DOPAC, HVA; assay: Striatal DA, DOPAC and HVA after MA (HPLC); settings: p.o.; AME 50, EBS 20, rottlerin 20 mg/kg; MA 8 mg/kg i.p. x4; GPx-1 (+/+) and (−/−) mice
Method: as §1
At 3 day after last MA injection, mice were killed by cervical dislocation and the brains were removed. Striatum was dissected and immediately frozen on dry ice, and stored at −70° C. until extraction. Striatum obtained from each animal was weighed, ultrasonicated in 10% perchloric acid containing 10 ng/mg of the internal standard dihydroxybenzylamine, and centrifuged at 20,000×g for 10 min. The levels of DA and its metabolites 3,4-dihydroxyphenylacetic acid (DOPAC) and homovanillic acid (HVA) in brain tissue extracts were determined by HPLC coupled with electrochemical detection as described (Kim et al., 1999). The 20 μl aliquot of the supernatant was injected into the HPLC equipped with a 3 μm C18 column. The mobile phase was comprised of 26 ml of acetonitrile, 21 ml of tetrahydrofuran and 960 ml of 0.15M monochloroacetic acid (pH 3.0) containing 50 mg/l of EDTA and 200 mg/l of sodium octyl sulfate. The amount of DA, DOPAC and HVA were determined by comparison of peak area of tissue sample with standard, and were expressed in nanograms per gram of wet tissue.

[3] = tested on: Iba-1 (a marker of microgliosis); assay: Iba-1 expression after MA (western blot); settings: p.o.; AME 50, EBS 20, rottlerin 20 mg/kg; MA 8 mg/kg i.p. x4; GPx-1 (+/+) and (−/−) mice
Method: as §1
The western blot assays was performed as described previously (Kim et al., 2003). Tissues were homogenized in lysis buffer, containing 200 mM Tris HCl (pH 6.8), 1% SDS, 5 mM EGTA (ethylene glycol tetraacetic acid), 5 mM EDTA (ethylenediaminetetraacetic acid), 10% glycerol, 1× phosphatase inhibitor cocktail I, 1× protease inhibitor cocktail. Lysate was centrifuged at 12,000×g for 30 min and supernatant fraction was used for Western blot analysis. Proteins (20-50 ug/lane) were separated by 6%, 8%, 10% or 15% sodium dodecyl sulfate-polyacrylamide gel electrophoresis and transferred onto the PVDF membranes. Following transfer, the membranes were preincubated with 5% non-fat milk and incubated overnight at 4° C. with primary antibody against β-actin (1:50000, Sigma, St. Louis, Mo., USA), TH (1:5000, Chemicon), TH phosphor-Ser 19 (1:1000, Chemicon,), TH phosphor-Ser 31 (1:500, Chemicon), TH phosphor-Ser 40 (1:500, Chemicon), F4/80 (1:500, Serotec), GPx1 (1:2500, AbFrontier), PKC (1:5000, Santa Cruz biotechnology, Santa Cruz, Calif., USA), p53 (1:5000, Cell signaling, Beverly, Mass., USA), MDM2 (1:1000, BD Pharmingen, San Jose, Calif., USA), MDM2 phospho-Ser 166 (1:1000, cell signaling), BDNF (1:500, Chemicon), GDNF (1:250, Santa Cruz), COX-2 (1:2000, Cayman, Ann Arbor, MC, USA), IL-6 (1:2000, Abcam, Cambridge, Mass., USA), TNF-a (1:1000, R&D Systems, Mckinley place NE, NM, USA), IFN-γ (1:500, Chemicon) or Iba-1 (1:500, Wako, Osaka, Japan). And then, membranes were incubated with HRP-conjugated secondary anti-rabbit IgG (1:1000, GE healthcare, Piscataway, N.J., USA), anti-mouse IgG (1:1000, Sigma) or anti-goat IgG (1:1000, Sigma) for 2 h. […]

[4] = p.o., AME 25 or 50, EBS 10 or 20, rottlerin 10 or 20 mg/kg (p<0.01 at high dose), GPx-1 (+/+) and (−/−) mice

O=c1c2ccccc2[se]n1-c1ccccc1 [EBS, 2-phenyl-1,2-benzisoselenazol-3(2H)-one]
effect on MA-induced striatal cleaved PKCδ expression (cleaved PKCδ): significantly reduced MA-induced the PKCδ- and cleaved PKCδ-expressions in a dose-related manner
effect on MA-induced hyperthermia [1, 4]: attenuated hyperthermia induced by MA in a dose-related manner
effect on MA-induced change in DA turnover rate [2]: significantly attenuated MA-induced dopaminergic impairment
effect on MA-induced change in striatal DA level [2]: significantly attenuated MA-induced dopaminergic impairment
effect on MA-induced change in striatal DOPAC level [2]: significantly attenuated MA-induced dopaminergic impairment
effect on MA-induced change in striatal HVA level [2]: significantly attenuated MA-induced dopaminergic impairment
effect on MA-induced increase in Iba-1 expression [3]: significantly and consistently attenuating effects

CC(=O)c1c(O)c(C)c(O)c(Cc2c(O)c3c(c(C(=O)/C=C/c4ccccc4)c2O)OC(C)(C)C=C3)c1O [rottlerin]
effect on MA-induced increase in striatal cleaved PKCδ expression (cleaved PKCδ; intra-striatal): attenuated the MA-induced increases in PKCδ expressions in a dose-dependent manner
effect on MA-induced striatal cleaved PKCδ expression (cleaved PKCδ): significantly reduced MA-induced the PKCδ- and cleaved PKCδ-expressions in a dose-related manner
effect on MA-induced hyperthermia ([1]; PKC inhibitors intra-striatal (doses of Table 1), GPx-1 (+/+) and GPx-1 (−/−) mice): significantly blocked MA-induced hyperthermia in a dose-dependent manner
effect on MA-induced hyperthermia [1, 4]: attenuated hyperthermia induced by MA in a dose-related manner
effect on MA-induced change in DA turnover rate [2]: significantly attenuated MA-induced dopaminergic impairment
effect on MA-induced change in striatal DA level [2]: significantly attenuated MA-induced dopaminergic impairment
effect on MA-induced change in striatal DOPAC level [2]: significantly attenuated MA-induced dopaminergic impairment
effect on MA-induced change in striatal HVA level [2]: significantly attenuated MA-induced dopaminergic impairment
effect on MA-induced increase in Iba-1 expression [3]: significantly and consistently attenuating effects

CC(=O)Oc1ccccc1C(=O)Oc1c(C)occc1=O [AME, 3-(2-methyl-4-pyronyl)-2-acetyloxybenzoate]
effect on MA-induced striatal cleaved PKCδ expression (cleaved PKCδ): significantly reduced MA-induced the PKCδ- and cleaved PKCδ-expressions in a dose-related manner
effect on MA-induced hyperthermia [1, 4]: attenuated hyperthermia induced by MA in a dose-related manner
effect on MA-induced change in DA turnover rate [2]: significantly attenuated MA-induced dopaminergic impairment
effect on MA-induced change in striatal DA level [2]: significantly attenuated MA-induced dopaminergic impairment
effect on MA-induced change in striatal DOPAC level [2]: significantly attenuated MA-induced dopaminergic impairment
effect on MA-induced change in striatal HVA level [2]: significantly attenuated MA-induced dopaminergic impairment
effect on MA-induced increase in Iba-1 expression [3]: significantly and consistently attenuating effects
